# Patent US12202844B2, “MAP4K1 inhibitors” (Blueprint Medicines Corporation, priority 2021, dated 2025)
# Assays:
# [1] = tested on: Primary T Cell (expanded CD3+ T cells); assay: T cell enhancement of cytokines: IL2 measurement (HTRF) in stimulated expanded CD3+ T cells; format: cell-based, human; conditions: Homo sapiens, T-cell, 24 h, plate-bound anti-CD3 and soluble anti-CD28, 24 h, IL2 by HTRF; read-out: IL-2 Primary T Cell EC50
# Procedure: T cells are isolated from whole blood of healthy donors by immunomagnetic negative selection following manufacture's protocol (StemCell Technologies, human T cell isolation kit). Purity of isolated cells is assessed by flow cytometry and yields 95-98% CD3^+ T cells. For expansion of T cells, 1×10^6 cells/well are plated in serum free cell expansion media (ThermoFisher) containing 30 U of recombinant human IL2 (R&D) and stimulated with 25 ul of CD3/CD28 beads (Invitrogen) in 24 well plates for 3-4 days. T cells are then expanded in 175 cm flasks and maintained at a cell density of 1 to 2.5×10^6 cells/ml days by addition of ⅔ of fresh media every 2-3 days. After 10-14 days, cells are frozen in BamBanker freezing media (Thermo) and stored in liquid nitrogen.
# For IL2 measurement, expanded CD3^+ T cells are dispensed at 100K cells/well (cultured in X-VIVO 10 Serum-free media) and are stimulated with plate-bound anti-CD3 and soluble anti-CD28 in the presence of vehicle or compound of the disclosure at various concentrations for 24 h. As outlined in the manufacturer's protocol (Cisbio), 16 μL of conditioned media is transferred to a white 384-well low volume plate. Following a 24 h incubation with the anti-IL2 antibodies, the homogenous time resolved fluorescence (HTRF) is measured.
# MAP4K1 (HPK1) = biological target: T1, MAP4K1 (HPK1) (Homo sapiens, UniProt Q92918); assay: Inhibition of MAP4K1 biochemical enzymatic activity (EZReader 2 electrophoretic mobility shift); conditions: HPK1 (Invitrogen), S6K2tide 1.5 μM, 120 min; ATP 26 μM or 1000 μM (not given)
# T1 construct: purchased Invitrogen
# T1 sequence (Q92918 whole entry): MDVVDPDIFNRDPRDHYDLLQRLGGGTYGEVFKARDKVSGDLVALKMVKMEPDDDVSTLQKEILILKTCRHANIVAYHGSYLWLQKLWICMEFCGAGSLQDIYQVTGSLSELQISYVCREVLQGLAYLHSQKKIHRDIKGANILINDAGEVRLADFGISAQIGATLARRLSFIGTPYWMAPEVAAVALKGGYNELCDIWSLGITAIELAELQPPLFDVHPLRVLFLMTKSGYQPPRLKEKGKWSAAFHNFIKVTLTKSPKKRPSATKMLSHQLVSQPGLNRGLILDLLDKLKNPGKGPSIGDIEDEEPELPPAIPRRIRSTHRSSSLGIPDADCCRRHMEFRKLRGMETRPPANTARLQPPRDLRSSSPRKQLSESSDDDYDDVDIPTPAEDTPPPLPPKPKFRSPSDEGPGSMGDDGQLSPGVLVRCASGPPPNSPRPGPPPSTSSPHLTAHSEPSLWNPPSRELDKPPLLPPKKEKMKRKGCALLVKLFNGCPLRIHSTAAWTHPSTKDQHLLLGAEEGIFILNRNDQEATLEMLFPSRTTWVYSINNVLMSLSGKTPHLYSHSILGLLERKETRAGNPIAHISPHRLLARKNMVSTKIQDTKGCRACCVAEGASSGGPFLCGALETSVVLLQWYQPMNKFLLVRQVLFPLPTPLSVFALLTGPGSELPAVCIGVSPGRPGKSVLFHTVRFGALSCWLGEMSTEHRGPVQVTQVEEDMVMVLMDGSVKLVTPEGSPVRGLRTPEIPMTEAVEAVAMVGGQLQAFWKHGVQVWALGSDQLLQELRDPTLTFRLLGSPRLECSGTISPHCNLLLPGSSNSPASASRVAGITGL
# How it was run: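 Untreated enzyme (0.1-15 nM) was incubated with 1.5 μM fluorescent peptide and 20-1000 μM ATP (apparent Km or 1 mM) in HEPES pH 7.5, MgCl2, DTT, Brij 35 at 25° C. for 60-180 min, with 1% DMSO and a 10-point 4-fold compound series. After an EDTA stop, product/substrate peptide peak ratio was read by mobility shift.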
Compound,EC50 [1],IC50 (MAP4K1 (HPK1))
"C[C@H]1[C@H](Oc2ncc(C(C)(C)N)c3cc(Nc4ccc5c(n4)[C@@H](C)C(C)(C)OC5=O)ncc23)C[C@@H]1S(C)(=O)=O (single isomer, unassigned) [Compound 69]",15 nM,0.1 nM
"CC[C@@](C)(N)c1cnc(O[C@H](C)C[C@@H](C)S(C)(=O)=O)c2cnc(Nc3ccc4c(n3)[C@H](C)COC4=O)cc12 (single isomer, unassigned) [Compound 47]",53 nM,0.38 nM
"CCC[C@@H](N)c1cnc(O[C@H]2C[C@@H](S(=O)(=O)CC)C2)c2cnc(Nc3ccc4c(n3)[C@@H](C)C(C)(C)OC4=O)cc12 (single isomer, unassigned) [Compound 115]",59 nM,0.33 nM
C[C@@H]1OC(=O)c2ccc(Nc3cc4c(C(C)(C)N)cnc(O[C@H]5C[C@@H](S(=O)(=O)N(C)C)C5)c4cn3)nc2[C@H]1C [Compound 81],18 nM,0.1 nM
CC[C@@](C)(N)c1cnc(O[C@H]2C[C@@H](S(C)(=O)=O)C2)c2cnc(Nc3ccc4c(n3)[C@@H](C)[C@H](C)OC4=O)cc12 [Compound 38],5 nM,0.12 nM
C[C@@H]1c2nc(Nc3cc4c(C(C)(C)N)cnc(N[C@H]5C[C@@H](S(C)(=O)=O)C5)c4cn3)ccc2C(=O)OC1(C)C [Compound 28],250 nM,0.14 nM
CCS(=O)(=O)[C@H]1C[C@@H](Oc2ccc(C(C)(C)N)c3cc(Nc4ccc5c(n4)[C@@H](C)C(C)(C)OC5=O)ncc23)C1 [Compound 63],14 nM,0.09 nM
"C[C@@H]1c2nc(Nc3cc4c(C(C)(C)N)cnc(O[C@H]5C[C@@H](CS(C)(=O)=O)C5)c4cn3)ccc2C(=O)OC1(C)C (single isomer, unassigned) [Compound 76]",25 nM,0.07 nM
"CCC[C@@](C)(N)c1cnc(O[C@H](C)CCS(C)(=O)=O)c2cnc(Nc3ccc4c(n3)CC(C)(C)OC4=O)cc12 (single isomer, unassigned) [Compound 85]",85 nM,0.37 nM
"C[C@@H]1OC(=O)c2ccc(Nc3cc4c(C(C)(C)N)cnc(O[C@@H](C)CCS(C)(=O)=O)c4cn3)nc2[C@H]1C (single isomer, unassigned) [Compound 18]",43 nM,0.33 nM

# Results, then the molecule that gave them:
EC50 [1],IC50 (MAP4K1 (HPK1)),Compound
25 nM,0.27 nM,"CC[C@@](C)(N)c1cnc(O[C@H](C)CCS(C)(=O)=O)c2cnc(Nc3ccc4c(n3)[C@@H](C)[C@@H](C)OC4=O)cc12 (single isomer, unassigned) [Compound 153]"
11 nM,0.29 nM,"CC[C@@](C)(N)c1cnc(O[C@H](C)C[C@@H](C)S(C)(=O)=O)c2cnc(Nc3ccc4c(n3)[C@@H](C)[C@@H](C)OC4=O)cc12 (single isomer, unassigned) [Compound 152]"
33 nM,0.33 nM,COC[C@@](C)(N)c1cnc(O[C@H]2C[C@@H](CS(C)(=O)=O)C2)c2cnc(Nc3ccc4c(n3)[C@@H](C)C(C)(C)OC4=O)cc12 [Compound 140]
16 nM,0.15 nM,CC[C@@](C)(N)c1cnc(O[C@H](C)C[C@@H](C)S(=O)(=O)CC)c2cnc(Nc3ccc4c(n3)[C@@H](C)C(C)(C)OC4=O)cc12 [Compound 143]
34 nM,0.16 nM,COC[C@@](C)(N)c1cnc(O[C@H]2C[C@@H](S(C)(=O)=O)C2)c2cnc(Nc3ccc4c(n3)[C@@H](C)C(C)(C)OC4=O)cc12 [Compound 123]
38 nM,0.3 nM,"CCS(=O)(=O)[C@H](C)C[C@@H](C)Oc1ncc([C@H](N)C2CC2)c2cc(Nc3ccc4c(n3)[C@@H](C)C(C)(C)OC4=O)ncc12 (single isomer, unassigned) [Compound 138]"
15 nM,0.15 nM,CCS(=O)(=O)[C@H]1C[C@@H](Oc2ncc([C@](C)(N)COC)c3cc(Nc4ccc5c(n4)[C@@H](C)C(C)(C)OC5=O)ncc23)C1 [Compound 141]
21 nM,0.17 nM,"CCC[C@@](C)(N)c1cnc(O[C@H](C)CCS(C)(=O)=O)c2cnc(Nc3ccc4c(n3)[C@@H](C)C(C)(C)OC4=O)cc12 (single isomer, unassigned) [Compound 126]"
